Test results from patent US20250340567A1, “Next Generation Synthetic Transcription Factors” (WISCONSIN ALUMNI RESEARCH FOUNDATION, priority 2018, published 2025).

Columns and labels:
[1] = Stability of synthetic transcription factors on storage, followed by mass spectra; type: physicochemical; settings: at 18° C., mass spectra (FIG. 2)
Experimental: In as little as 5 days at 18° C., SynTEF1 begins to break down (FIG. 2).
Other synthetic transcription factors having an ether bond as described herein between the bromodomain binding moiety and the linker also have shown improved stability.

[2] = tested on: BET BD2; settings: cited from earlier work
[3] = tested on: BET BD1; settings: cited from earlier work
[4] = target: BRD2 (Homo sapiens, UniProt P25440); settings: cited from earlier work
[5] = target: BRD3 (Homo sapiens, UniProt Q15059); settings: cited from earlier work
[6] = target: BRD4(2) second bromodomain (Homo sapiens, UniProt O60885); settings: cited from earlier work
[7] = target: BRD4(1) first bromodomain (Homo sapiens, UniProt O60885); settings: cited from earlier work
[8] = tested on: BET bromodomain; settings: read-out: IC50 BET bromodomain; cited from earlier work

BRD2, sequence (P25440 whole entry, species assumed): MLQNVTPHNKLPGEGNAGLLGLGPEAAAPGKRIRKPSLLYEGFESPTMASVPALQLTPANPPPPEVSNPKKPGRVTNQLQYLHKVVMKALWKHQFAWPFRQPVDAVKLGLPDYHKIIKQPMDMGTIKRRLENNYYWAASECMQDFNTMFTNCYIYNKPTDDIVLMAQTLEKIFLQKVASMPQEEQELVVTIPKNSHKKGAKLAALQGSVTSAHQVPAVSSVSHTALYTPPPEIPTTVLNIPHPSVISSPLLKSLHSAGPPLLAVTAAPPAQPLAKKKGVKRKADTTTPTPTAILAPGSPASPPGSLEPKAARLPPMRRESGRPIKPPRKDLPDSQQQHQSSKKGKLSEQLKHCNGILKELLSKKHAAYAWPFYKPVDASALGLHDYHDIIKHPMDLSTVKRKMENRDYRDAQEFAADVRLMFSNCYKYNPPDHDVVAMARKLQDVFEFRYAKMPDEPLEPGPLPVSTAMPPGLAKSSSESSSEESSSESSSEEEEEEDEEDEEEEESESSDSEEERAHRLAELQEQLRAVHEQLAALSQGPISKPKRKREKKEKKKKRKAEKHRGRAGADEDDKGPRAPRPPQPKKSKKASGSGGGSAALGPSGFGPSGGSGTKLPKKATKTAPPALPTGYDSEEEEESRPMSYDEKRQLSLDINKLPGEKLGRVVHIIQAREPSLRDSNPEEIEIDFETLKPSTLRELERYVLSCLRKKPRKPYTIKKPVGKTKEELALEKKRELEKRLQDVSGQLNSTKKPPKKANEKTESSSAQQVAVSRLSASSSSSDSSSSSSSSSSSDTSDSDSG
BRD3, sequence (Q15059 whole entry, species assumed): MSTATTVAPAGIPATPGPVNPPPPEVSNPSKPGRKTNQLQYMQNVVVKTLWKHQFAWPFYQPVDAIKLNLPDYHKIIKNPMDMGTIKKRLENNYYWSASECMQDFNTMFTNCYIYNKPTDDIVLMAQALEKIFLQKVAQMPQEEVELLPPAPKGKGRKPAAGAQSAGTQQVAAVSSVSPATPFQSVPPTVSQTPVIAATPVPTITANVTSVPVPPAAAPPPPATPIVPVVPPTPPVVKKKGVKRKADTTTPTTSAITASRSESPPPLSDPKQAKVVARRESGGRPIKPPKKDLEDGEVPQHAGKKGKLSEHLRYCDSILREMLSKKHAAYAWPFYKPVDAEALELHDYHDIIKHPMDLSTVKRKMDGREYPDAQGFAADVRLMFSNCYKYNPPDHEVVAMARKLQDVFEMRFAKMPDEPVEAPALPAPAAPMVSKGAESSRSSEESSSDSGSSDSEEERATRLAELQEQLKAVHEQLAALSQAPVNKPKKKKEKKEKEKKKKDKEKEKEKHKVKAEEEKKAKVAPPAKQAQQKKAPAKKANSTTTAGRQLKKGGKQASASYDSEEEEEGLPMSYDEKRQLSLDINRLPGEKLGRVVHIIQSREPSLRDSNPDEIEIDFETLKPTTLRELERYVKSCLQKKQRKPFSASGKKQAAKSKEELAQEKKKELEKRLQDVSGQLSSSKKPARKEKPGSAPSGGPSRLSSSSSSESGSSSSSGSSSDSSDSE

Cc1sc2c(c1C)C(c1ccc(Cl)cc1)=N[C@@H](CC(=O)NCCOCCOCCOCCOCCOCCOCCC(=O)NCCCN(C)CCCNC(=O)CCNC(=O)c1nc(NC(=O)CCNC(=O)c3cc(NC(=O)c4nc(NC(=O)CCNC(=O)c5cc(NC(=O)c6nccn6C)cn5C)cn4C)cn3C)cn1C)c1nnc(C)n1-2 [SynTEF1]
time at which the compound begins to break down [1]: ≤ 5 days

COc1cc(OC)c2c(=O)[nH]c(-c3cc(C)c(OCCO)c(C)c3)nc2c1 [RVX208]
IC50 [2]: 510 nM
IC50 [3]: 87000 nM

CC(=O)N1c2ccc(-c3ccc(C(=O)O)cc3)cc2[C@H](Nc2ccc(Cl)cc2)C[C@@H]1C [I-BET726]
IC50 [4]: 41 nM
IC50 [5]: 31 nM

Cc1sc2c(c1C)C(c1ccc(Cl)cc1)=N[C@@H](CC(=O)NC(C)(C)C)c1nnc(C)n1-2 [(+)-JQ1]
IC50 [6]: 33 nM
IC50 [7]: 77 nM

CCNC(=O)C[C@@H]1N=C(c2ccc(Cl)cc2)c2cc(OC)ccc2-n2c(C)nnc21 [I-BET762]
IC50 [8]: 32.5 to 42.5 nM
